Values of other authors as cited in patent US12702690B2, “Cannabinoid compositions and dosage forms for intranasal or inhalational delivery” (RHODES TECHNOLOGIES, priority 2020, dated 2026).

Key:
[1] = background statement
[2] = following ingestion; Sharma et al. 2012

In the case of `CCCCCc1cc(O)c2c(c1)OC(C)(C)C1CCC(C)=CC21` (single isomer, unassigned; (-)) [Dronabinol, (−)-trans-Δ^9-tetrahydrocannabinol], the solubility in water [1] is listed as “insoluble in water” and the “time at which systemic absorption peaks” value [2] is listed as 1 to 2 h.
